In patent publication US12091409B2, “Ether linked triazoles as NRF2 activators” (ASTEX THERAPEUTICS LIMITED, priority 2016, dated 2024):
Structures can show the parent of a compound that is named as a salt.

What follows are molecules tested on NQO1 specific enzyme activity in BEAS-2B cells (marker for NRF2 activation) (assay: BEAS-2B NQO1 MTT Assay). Details: Homo sapiens, BEAS-2B, 48 h, NQO1 specific activity induction, 48 hours with compound.
Assay type: cell-based
Outline: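 Cells plated overnight at 37° C., 5% CO2, then exposed to compound for 48 hours. NQO1 activity read in crude lysates with MTT cocktail as kinetic absorbance at 570 nm over 30 minutes. pEC50 from Delta OD/min versus log concentration with a 3-parameter fit.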
Cc1ccc([C@H](OCc2cn(C)nn2)C(C)(C)C(=O)O)cc1CN1Cc2ncccc2O[C@H](C(C)C)C1 [Example 112, (S)-3-(3-(((R)-2-isopropyl-2,3-dihydropyrido[2,3-f][1,4]oxazepin-4(5H)-yl)methyl)-4-methylphenyl)-2,2-dimethyl-3-((1-methyl-1H-1,2,3-triazol-4-yl)-methoxy)propanoic acid, trifluoroacetate] gave an EC50 of 10 to 100 nM.
Cc1ccc(C(OCc2cn(CC3CCN(C(=O)C4CCOCC4)CC3)nn2)C(C)(C)C(=O)O)cc1CN1C[C@@H](C)Oc2ccccc2S1(=O)=O (stereo partly drawn) [Example 35, 2,2-Dimethyl-3-(4-methyl-3-(((R)-4-methyl-1,1-dioxido-3,4-dihydro-2H-benzo[b][1,4,5]oxathiazepin-2-yl)methyl)phenyl)-3-((1-((1-(tetrahydro-2H-pyran-4-carbonyl)piperidin-4-yl)methyl)-1H-1,2,3-triazol-4-yl)methoxy)propanoic acid] was tested, and the EC50 was 100 to 1000 nM.
In the case of CCCn1cc(CO[C@H](c2ccc(C)c(CN3C[C@@H](CC)Oc4ccccc4S3(=O)=O)c2)C(C)(C)C(=O)O)nn1 [Example 90, (R)-3-(3-(((R)-4-ethyl-1,1-dioxido-3,4-dihydro-2H-benzo[b][1,4,5]oxathiazepin-2-yl)methyl)-4-methylphenyl)-2,2-dimethyl-3-((1-propyl-1H-1,2,3-triazol-4-yl)methoxy)propanoic acid], the EC50 is reported as < 1 nM.
Molecule COC(=O)C(C)(C)C(OCc1cn(Cc2cccc(-c3cccc(C(=O)O)n3)c2)nn1)c1ccc(C)c(CN2C[C@@H](C)Oc3ccccc3S2(=O)=O)c1 (stereo partly drawn) [Example 58, 6-(3-((4-((3-Methoxy-2,2-dimethyl-1-(4-methyl-3-(((R)-4-methyl-1,1-dioxido-3,4-dihydro-2H-benzo[b][1,4,5]oxathiazepin-2-yl)methyl)phenyl)-3-oxopropoxy)methyl)-1H-1,2,3-triazol-1-yl)methyl)-phenyl)picolinic acid] has an EC50 of 100 to 1000 nM.
With CCc1cn(Cc2cccc(Cn3cc(COC(c4ccc(C)c(CN5C[C@@H](C)Oc6ccccc6S5(=O)=O)c4)C(C)(C)C(=O)O)nn3)c2)nn1 (stereo partly shown) [Example 38] the EC50 was 10 to 100 nM.
In the case of CCn1cc(CO[C@H](c2ccc(C)c(CN3C[C@@H](C)Cc4ncccc4S3(=O)=O)c2)C(C)(C)C(=O)O)nn1 [Example 62, (3R)-((1-ethyl-1H-1,2,3-triazol-4-yl)methoxy)-2,2-dimethyl-3-(4-methyl-3-(((S)-4-methyl-1,1-dioxido-4,5-dihydropyrido[2,3-f][1,2]thiazepin-2(3H)-yl)methyl)phenyl)propanoic acid], the EC50 is reported as < 1 nM.
In the case of COC(=O)C(C)(C)C(OCc1cn(Cc2cccc(-c3ccnc(C(=O)O)c3)c2)nn1)c1ccc(C)c(CN2C[C@@H](C)Oc3ccccc3S2(=O)=O)c1 (stereo partly drawn) [Example 57, 4-(3-((4-((3-Methoxy-2,2-dimethyl-1-(4-methyl-3-(((R)-4-methyl-1,1-dioxido-3,4-dihydro-2H-benzo[b][1,4,5]oxathiazepin-2-yl)methyl)phenyl)-3-oxopropoxy)methyl)-1H-1,2,3-triazol-1-yl)methyl)phenyl)picolinic acid], the EC50 is reported as 100 to 1000 nM.
With CC[C@H]1Cc2ccccc2S(=O)(=O)N(Cc2cc([C@@H](OCc3cn(CC)nn3)C(C)(C)C(=O)O)ccc2C)C1 [Example 85, (3R)-((1-ethyl-1H-1,2,3-triazol-4-yl)methoxy)-2,2-dimethyl-3-(4-methyl-3-(((S)-4-ethyl-1,1-dioxido-4,5-dihydrobenzo[f][1,2]thiazepin-2(3H)-yl)methyl)phenyl)propanoic acid] the EC50 was < 1 nM.
For CCCn1cc(CO[C@H](c2ccc(C)c(CN3CC(C)(C)Oc4ccccc4S3(=O)=O)c2)C(C)(C)C(=O)O)nn1 [Example 78, (R)-3-(3-((4,4-dimethyl-1,1-dioxido-3,4-dihydro-2H-benzo[b][1,4,5]oxathiazepin-2-yl)methyl)-4-methylphenyl)-2,2-dimethyl-3-((1-propyl-1H-1,2,3-triazol-4-yl)methoxy)propanoic acid], the EC50 was 1 to 10 nM.
Molecule CC[C@H]1Cc2ccccc2S(=O)(=O)N(Cc2cc([C@H](OCc3cn(CC)nn3)C(C)(C)C(=O)O)ccc2C)C1 [Example 81, (3S)-((1-ethyl-1H-1,2,3-triazol-4-yl)methoxy)-2,2-dimethyl-3-(4-methyl-3-(((S)-4-ethyl-1,1-dioxido-4,5-dihydrobenzo[f][1,2]thiazepin-2(3H)-yl)methyl)phenyl)propanoic acid] has an EC50 of 1 to 10 nM.
With CCn1cc(COC(c2ccc(C)c(CN(C3CCCCC3)S(=O)(=O)c3ccccc3)c2)C(C)(C)C(=O)O)nn1 (stereo not shown) [Example 98, 3-(3-((N-cyclohexylphenylsulfonamido)methyl)-4-methylphenyl)-3-((1-ethyl-1H-1,2,3-triazol-4-yl)methoxy)-2,2-dimethylpropanoic acid] the EC50 was 10 to 100 nM.
COCCn1cc(CO[C@H](c2ccc(C)c(CN(Cc3ccccn3)S(=O)(=O)c3cccc(C(=O)O)c3)c2)C(C)(C)C(=O)O)nn1 [Example 93, (R)-3-(N-(5-(2-carboxy-1-((1-(2-methoxyethyl)-1H-1,2,3-triazol-4-yl)methoxy)-2-methylpropyl)-2-methylbenzyl)-N-(pyridin-2-ylmethyl)sulfamoyl)benzoic acid] was tested, and the EC50 was 100 to 1000 nM.
Cc1ccc([C@@H](OCc2cn(CCOCCn3cc(CO[C@H](c4ccc(C)c(CN5C[C@@H](C)Oc6ccccc6S5(=O)=O)c4)C(C)(C)C(=O)O)nn3)nn2)C(C)(C)C(=O)O)cc1CN1C[C@@H](C)Oc2ccccc2S1(=O)=O (relative stereo) [Example 51, (R,rel-3R, rel-3′R)-3,3′-(((1,1′-(oxybis(ethane-2,1-diyl))bis(1H-1,2,3-triazole-4,1-diyl))bis(methylene))bis(oxy))bis(2,2-dimethyl-3-(4-methyl-3-(((R)-4-methyl-1,1-dioxido-3,4-dihydro-2H-benzo[b][1,4,5]oxathiazepin-2-yl)methyl)phenyl)propanoic acid)] was tested, and the EC50 was 1000 to 10000 nM.
In the case of CC[C@@H]1CN(Cc2cc(C(OCc3cn(Cc4ccccc4)nn3)C(C)(C)C(=O)O)ccc2C)S(=O)(=O)c2ccccc2O1 (stereo partly drawn) [Example 7, 3-((1-Benzyl-1H-1,2,3-triazol-4-yl)methoxy)-3-(3-(((R)-4-ethyl-1,1-dioxido-3,4-dihydro-2H-benzo[b][1,4,5]oxathiazepin-2-yl)methyl)-4-methylphenyl)-2,2-dimethylpropanoic acid], the EC50 is reported as < 1 nM.
Cc1ccc(C(OCc2cn(CC3CCN(C(=O)c4ccccc4)CC3)nn2)C(C)(C)C(=O)O)cc1CN1C[C@@H](C)Oc2ccccc2S1(=O)=O (stereo partly drawn) [Example 31, 3-((1-((1-Benzoylpiperidin-4-yl)methyl)-1H-1,2,3-triazol-4-yl)methoxy)-2,2-dimethyl-3-(4-methyl-3-(((R)-4-methyl-1,1-dioxido-3,4-dihydro-2H-benzo[b][1,4,5]oxathiazepin-2-yl)methyl)phenyl)propanoic acid] was tested, and the EC50 was 10 to 100 nM.
CCCn1cc(CO[C@H](c2ccc(C)c(CN3C[C@@H](C)Cc4ccccc4S3(=O)=O)c2)C(C)(C)C(=O)O)nn1 [Example 88, (R)-2,2-dimethyl-3-(4-methyl-3-(((S)-4-methyl-1,1-dioxido-4,5-dihydrobenzo[f][1,2]thiazepin-2(3H)-yl)methyl)phenyl)-3-((1-propyl-1H-1,2,3-triazol-4-yl)methoxy)propanoic acid] was tested, and the EC50 was < 1 nM.
In the case of Cc1ccc(C(OCc2cn(CC3CCN(S(C)(=O)=O)CC3)nn2)C(C)(C)C(=O)O)cc1CN1C[C@@H](C)Oc2ccccc2S1(=O)=O (stereo partly drawn) [Example 36, 2,2-Dimethyl-3-(4-methyl-3-(((R)-4-methyl-1,1-dioxido-3,4-dihydro-2H-benzo[b][1,4,5]oxathiazepin-2-yl)methyl)phenyl)-3-((1-((1-(methylsulfonyl)piperidin-4-yl)methyl)-1H-1,2,3-triazol-4-yl)methoxy)propanoic acid], the EC50 is reported as 10 to 100 nM.
In the case of CCn1cc(COC(c2ccc(C)c(CN(C3CCCCC3)S(=O)(=O)c3ccc(OC)cc3)c2)C(C)(C)C(=O)O)nn1 (stereo not shown) [Example 97, 3-(3-(((N-cyclohexyl-4-methoxyphenyl)sulfonamido)methyl)-4-methylphenyl)-3-((1-ethyl-1H-1,2,3-triazol-4-yl)methoxy)-2,2-dimethylpropanoic acid], the EC50 is reported as 100 to 1000 nM.
Cc1ccc(C(OCc2cn(CC3CCCN(C(=O)OC(C)(C)C)C3)nn2)C(C)(C)C(=O)O)cc1CN1C[C@@H](C)Oc2ccccc2S1(=O)=O (stereo partly drawn) [Example 18, 3-((1-((1-(Tert-butoxycarbonyl)piperidin-3-yl)methyl)-1H-1,2,3-triazol-4-yl)methoxy)-2,2-dimethyl-3-(4-methyl-3-(((R)-4-methyl-1,1-dioxido-3,4-dihydro-2H-benzo[b][1,4,5]oxathiazepin-2-yl)methyl)phenyl)propanoic acid] was tested, and the EC50 was 1 to 10 nM.
COC(=O)C(C)(C)C(OCc1cn(Cc2cccc(-c3ccc(C(=O)O)cn3)c2)nn1)c1ccc(C)c(CN2C[C@@H](C)Oc3ccccc3S2(=O)=O)c1 (stereo partly drawn) [Example 59, 6-(3-((4-((3-Methoxy-2,2-dimethyl-1-(4-methyl-3-(((R)-4-methyl-1,1-dioxido-3,4-dihydro-2H-benzo[b][1,4,5]oxathiazepin-2-yl)methyl)phenyl)-3-oxopropoxy)methyl)-1H-1,2,3-triazol-1-yl)methyl)-phenyl)nicotinic acid] was tested, and the EC50 was 1000 to 10000 nM.
Molecule CCn1cc(CO[C@H](c2ccc(C)c(CN3C[C@H](C)Cc4ncccc4S3(=O)=O)c2)C(C)(C)C(=O)O)nn1 [Example 68, (3R)-((1-ethyl-1H-1,2,3-triazol-4-yl)methoxy)-2,2-dimethyl-3-(4-methyl-3-(((R)-4-methyl-1,1-dioxido-4,5-dihydropyrido[2,3-f][1,2]thiazepin-2(3H)-yl)methyl)phenyl)propanoic acid] has an EC50 of 10 to 100 nM.
CC[C@@H]1CN(Cc2cc(C(OCc3cn(Cc4cc(C)cc(Cn5cc(CO)nn5)c4)nn3)C(C)(C)C(=O)O)ccc2C)S(=O)(=O)c2ccccc2O1 (stereo partly drawn) [Example 27, 3-(3-(((R)-4-ethyl-1,1-dioxido-3,4-dihydro-2H-benzo[b][1,4,5]oxathiazepin-2-yl)methyl)-4-methylphenyl)-3-((1-(3-((4-(hydroxymethyl)-1H-1,2,3-triazol-1-yl)methyl)-5-methylbenzyl)-1H-1,2,3-triazol-4-yl)methoxy)-2,2-dimethylpropanoic acid] was tested, and the EC50 was 1 to 10 nM.
